Series [1] concerns T47D. In words: Cytotoxicity against human T47D cells at 50 ug/ml after 72 hrs by BrdU incorporation assay relative to control. The class given is functional. To be noted: read-out: GI. On the technique in general: Dividing cells build labelled thymidine or BrdU into new DNA.
The test system of series [2] is T47D. In words: Cytotoxicity against human T47D cells at 50 ug/ml after 48 hrs by BrdU incorporation assay relative to control. It counts as functional. To be noted: read-out: GI.
Series [3] deals with T47D. Kind of series: Cytotoxicity against human T47D cells at 50 ug/ml after 24 hrs by BrdU incorporation assay relative to control. It counts as functional. To be noted: read-out: GI.
The test system of series [4] is HeLa. Kind of series: Cytotoxicity against human HeLa cells at 50 ug/ml after 72 hrs by BrdU incorporation assay relative to control. It counts as functional. The settings on record: read-out: GI.
In series [5] the test system is HeLa. In words: Cytotoxicity against human HeLa cells at 50 ug/ml after 48 hrs by BrdU incorporation assay relative to control. It counts as functional. To be noted: read-out: GI.
Series [6] concerns HeLa. In words: Cytotoxicity against human HeLa cells at 50 ug/ml after 24 hrs by BrdU incorporation assay relative to control. It counts as functional. The settings on record: read-out: GI.
Series [7] in a line: Cytotoxicity against human MM1S cells at 50 ug/ml after 72 hrs by BrdU incorporation assay relative to control. It counts as functional. To be noted: MM1.S, read-out: GI.
Series [8] is described as follows: Cytotoxicity against human MM1S cells at 50 ug/ml after 48 hrs by BrdU incorporation assay relative to control. The class given is functional. To be noted: MM1.S, read-out: GI.
A short description of series [9]: Cytotoxicity against human MM1S cells at 50 ug/ml after 24 hrs by BrdU incorporation assay relative to control. To be noted: MM1.S, read-out: GI. It counts as functional.
Series [10] can be described thus: Cytotoxicity against human MM1R cells at 50 ug/ml after 72 hrs by BrdU incorporation assay relative to control. It counts as functional. The settings on record: MM.1R, read-out: GI.
The nature of series [11]: Cytotoxicity against human MM1R cells at 50 ug/ml after 48 hrs by BrdU incorporation assay relative to control. It counts as functional. To be noted: MM.1R, read-out: GI.
A short description of series [12]: Cytotoxicity against human MM1R cells at 50 ug/ml after 24 hrs by BrdU incorporation assay relative to control. It counts as functional. To be noted: MM.1R, read-out: GI.
Series [13] can be described thus: Cytotoxicity against human HSF cells at 50 ug/ml after 72 hrs by BrdU incorporation assay relative to control. The class given is cell-based. To be noted: read-out: GI.
The nature of series [14]: Cytotoxicity against human HSF cells at 50 ug/ml after 48 hrs by BrdU incorporation assay relative to control. The settings on record: read-out: GI. The class given is cell-based.
Series [15] is described as follows: Cytotoxicity against human HSF cells at 50 ug/ml after 24 hrs by BrdU incorporation assay relative to control. The class given is cell-based. The settings on record: read-out: GI.
In series [16] the test system is T47D. In words: Induction of necrosis in human T47D cells at 50 ug/ml after 72 hrs by propidium iodide/Hoechst 33342 staining-based confocal microscopy (reference value: 10%). It counts as functional.
Series [17] has as its system HeLa. In words: Induction of necrosis in human HeLa cells at 50 ug/ml after 72 hrs by propidium iodide/Hoechst 33342 staining-based confocal microscopy (reference value: 10%). It counts as functional.
Series [18] is described as follows: Induction of necrosis in human HSF cells at 50 ug/ml after 72 hrs by propidium iodide/Hoechst 33342 staining-based confocal microscopy (reference value: 5%). The class given is cell-based.
For series [19], the system named is T47D. In words: Induction of necrosis in human T47D cells at 50 ug/ml after 48 hrs by propidium iodide/Hoechst 33342 staining-based confocal microscopy (reference value: 8%). The class given is functional.
The test system of series [20] is HeLa. Kind of series: Induction of necrosis in human HeLa cells at 50 ug/ml after 48 hrs by propidium iodide/Hoechst 33342 staining-based confocal microscopy (reference value: 10%). The class given is functional.
Series [21] in a line: Induction of necrosis in human HSF cells at 50 ug/ml after 48 hrs by propidium iodide/Hoechst 33342 staining-based confocal microscopy (reference value: 4%). It counts as cell-based.
Series [22] has as its system T47D. In words: Induction of necrosis in human T47D cells at 50 ug/ml after 24 hrs by propidium iodide/Hoechst 33342 staining-based confocal microscopy (reference value: 5%). It counts as functional.
The subject of series [23] is HeLa. Kind of series: Induction of necrosis in human HeLa cells at 50 ug/ml after 24 hrs by propidium iodide/Hoechst 33342 staining-based confocal microscopy (reference value: 5%). It counts as functional.
Series [24] can be described thus: Induction of necrosis in human HSF cells at 50 ug/ml after 24 hrs by propidium iodide/Hoechst 33342 staining-based confocal microscopy (reference value: 2%). It counts as cell-based.
The test system of series [25] is T47D. Kind of series: Induction of apoptosis in human T47D cells at 50 ug/ml after 72 hrs by propidium iodide/Hoechst 33342 staining-based confocal microscopy (reference value: 5%). It counts as functional.
In series [26] the test system is HeLa. In words: Induction of apoptosis in human HeLa cells at 50 ug/ml after 72 hrs by propidium iodide/Hoechst 33342 staining-based confocal microscopy (reference value: 5%). It counts as functional.
Series [27] can be described thus: Induction of apoptosis in human HSF cells at 50 ug/ml after 72 hrs by propidium iodide/Hoechst 33342 staining-based confocal microscopy (reference value: 5%). The class given is cell-based.
For series [28], the system named is T47D. Kind of series: Induction of apoptosis in human T47D cells at 50 ug/ml after 48 hrs by propidium iodide/Hoechst 33342 staining-based confocal microscopy (reference value: 2%). The class given is functional.
In series [29] the test system is HeLa. Kind of series: Induction of apoptosis in human HeLa cells at 50 ug/ml after 48 hrs by propidium iodide/Hoechst 33342 staining-based confocal microscopy (reference value: 5%). It counts as functional.
A short description of series [30]: Induction of apoptosis in human HSF cells at 50 ug/ml after 48 hrs by propidium iodide/Hoechst 33342 staining-based confocal microscopy (reference value: 5%). The class given is cell-based.
Series [31] has as its system T47D. In words: Induction of apoptosis in human T47D cells at 50 ug/ml after 24 hrs by propidium iodide/Hoechst 33342 staining-based confocal microscopy (reference value: 2%). The class given is functional.
In series [32] the test system is HeLa. Kind of series: Induction of apoptosis in human HeLa cells at 50 ug/ml after 24 hrs by propidium iodide/Hoechst 33342 staining-based confocal microscopy (reference value: 2%). The class given is functional.
Series [33] is described as follows: Induction of apoptosis in human HSF cells at 50 ug/ml after 24 hrs by propidium iodide/Hoechst 33342 staining-based confocal microscopy (reference value: 2%). The class given is cell-based.

Take `CCOC(=O)C/C(=N\N=C1/NCCN1c1ccc(C)cc1)C(=O)OCC`: the inhibition of growth at 50 µg/mL in the series with T47D [1] is 80%; in the series with T47D [2], 75%; with T47D [3], 50%; in the series on HeLa [4], 50%; in the series with HeLa [5], 45%; in the series on HeLa [6] it was 5%. For the same compound, the inhibition of growth at 50 µg/mL in series [7] was 85%; in series [8], 70%; in series [9], 55%; in series [10], 95%; in series [11], 90%; in [12] it was 75%. Besides, in [13], the inhibition at 72 h, 50 ug/ml worked out at 80%. Besides, the inhibition at 48 h, 50 ug/ml in [14] turned out to be 80%. Besides, the inhibition at 24 h, 50 ug/ml in series [15] was determined as 70%.

As for `CCOC(=O)C/C(=N\N=C1/NCCN1c1cccc(Cl)c1)C(=O)OCC`, the inhibition of growth at 50 µg/mL in the series with T47D [1] amounted to 90%; with T47D [2], 85%; in the series with T47D [3], 80%; in the series on HeLa [4], 45%; in the series with HeLa [5] it was 25%; in the series with HeLa [6], 5%. The inhibition of growth at 50 µg/mL in series [7] amounted to 80%; in series [8], 65%; in series [9], 40%; in series [10] it was 80%; in [11], 75%; in series [12], 70%. Moreover, the inhibition at 72 h, 50 ug/ml in series [13] was found to be 90%. Also, the inhibition at 48 h, 50 ug/ml in [14] amounted to 90%. Besides, the inhibition at 24 h, 50 ug/ml in series [15] was found to be 70%.

Take `CCOC(=O)C/C(=N\N=C1/NCCN1c1ccc(Cl)cc1)C(=O)OCC`: the inhibition of growth at 50 µg/mL in the series on T47D [1] stood at 90%; in the series with T47D [2] it was 85%; in the series with T47D [3] it was 80%; with HeLa [4], 55%; with HeLa [5], 30%; with HeLa [6], 10%. Moreover, the inhibition of growth at 50 µg/mL in series [7] is 90%; in series [8], 75%; in series [9], 65%; in series [10] it was 90%; in [11], 80%; in [12] it was 65%. Moreover, the inhibition at 72 h, 50 ug/ml in series [13] worked out at 90%. In series [14], the inhibition at 48 h, 50 ug/ml came out at 90%. The inhibition at 24 h, 50 ug/ml in series [15] came out at 70%.

For the compound `CCOC(=O)C/C(=N\N=C1/NCCN1c1ccc(Cl)c(Cl)c1)C(=O)OCC`, the inhibition of growth at 50 µg/mL worked out at 100% in the series on T47D [1]; 95% with T47D [2]; 80% in the series on T47D [3]; 60% in the series on HeLa [4]; 50% in the series with HeLa [5]; 50% in the series on HeLa [6]. The inhibition of growth at 50 µg/mL stood at 90% in [7]; 80% in series [8]; 70% in series [9]; 80% in [10]; 80% in series [11]; 70% in [12]. Further, the inhibition at 72 h, 50 ug/ml in [13] is 90%. The inhibition at 48 h, 50 ug/ml in [14] was 90%. In addition, the inhibition at 24 h, 50 ug/ml in series [15] amounted to 70%.

On to `CCOC(=O)Cc1nnc2n(c1=O)CCN2c1ccc(C)cc1`, for which the inhibition of growth at 50 µg/mL in the series with T47D [1] is 80%; with T47D [2] it was 75%; with T47D [3], 25%; in the series on HeLa [4], 70%; in the series on HeLa [5], 70%; in the series on HeLa [6], 20%. Moreover, the inhibition of growth at 50 µg/mL was 70% in series [7]; 60% in [8]; 50% in series [9]; 75% in series [10]; 70% in series [11]; 60% in series [12]. The inhibition at 72 h, 50 ug/ml in series [13] turned out to be 80%. In series [14], the inhibition at 48 h, 50 ug/ml came to 75%. For the same compound, the inhibition at 24 h, 50 ug/ml in series [15] was 50%.

Turning to `CCOC(=O)Cc1nnc2n(c1=O)CCN2c1ccccc1OC`, the inhibition of growth at 50 µg/mL came to 40% in the series with T47D [1]; 35% in the series with T47D [2]; 30% in the series on T47D [3]; 50% with HeLa [4]; 45% in the series on HeLa [5]; 10% in the series with HeLa [6]. The inhibition of growth at 50 µg/mL in series [7] is 85%; in series [8] it was 55%; in [9] it was 45%; in [10], 95%; in series [11], 80%; in [12] it was 75%. In [13], the inhibition at 72 h, 50 ug/ml was found to be 80%. Further, the inhibition at 48 h, 50 ug/ml in series [14] was 80%. Further, in series [15], the inhibition at 24 h, 50 ug/ml was 50%.

For the compound `CCOC(=O)Cc1nnc2n(c1=O)CCN2c1ccc(Cl)c(Cl)c1`, the Activity turned out to be 50% in the series on T47D [16]; 80% with HeLa [17]; 70% in series [18]; 45% in the series on T47D [19]; 45% with HeLa [20]; 60% in series [21]. Moreover, the Activity was found to be 25% with T47D [22]; 45% in the series with HeLa [23]; 50% in series [24]; 20% with T47D [25]; 15% in the series with HeLa [26]; 12% in series [27]. In addition, the Activity with T47D [28] worked out at 10%; in the series with HeLa [29], 10%; in series [30], 10%; in the series on T47D [31], 15%; in the series on HeLa [32] it was 10%; in series [33] it was 10%. The inhibition of growth at 50 µg/mL with T47D [1] stood at 50%; in the series on T47D [2], 40%; in the series on T47D [3] it was 25%; in the series with HeLa [4] it was 80%; in the series on HeLa [5] it was 45%; in the series with HeLa [6], 45%. Also, the inhibition of growth at 50 µg/mL in [7] was 80%; in series [8] it was 65%; in series [9], 40%; in series [10], 90%; in series [11] it was 80%; in [12], 65%. The inhibition at 72 h, 50 ug/ml in series [13] was 70%. For the same compound, the inhibition at 48 h, 50 ug/ml in [14] worked out at 60%. In addition, in series [15], the inhibition at 24 h, 50 ug/ml is 50%.
